According to patent US11945881B2, “Neoantigens expressed in ovarian cancer and their uses” (Janssen Biotech, Inc., priority 2020, dated 2024):

Experiments:
CD8+ T cells = experiment: exogenous autologous normal donor restimulation assay, TNFα/IFNγ double positive CD8+ T cells by flow cytometry; format: cell-based, human; details: for Fold change (CD8+) vs. DMSO: maximum CD8+ T-cell response (TNFα and IFNγ); for Fold change (CD8+) vs. DMSO / Frequency (TNFα + IFNγ + CD8 T cells): donor independent, peptide pool 10 μg/mL, healthy donors; for Frequency (TNFα + IFNγ + CD8 T cells): maximum CD8+ T-cell response; for Immunogenic (yes/no): positive if CD8+ and/or CD4+ double positive TNFα/IFNγ frequency >=3-fold over DMSO and at least 0.01%
Protocol: (§1) The immunogenicity of neoantigens was assessed using the exogenous autologous normal donor restimulation assay. […] The lyophilized peptides were solubilized in 100% DMSO.
(§2) CD1c+ Dendritic Cells (CD1c+DC) isolated from human healthy PBMCs were thawed using media (IMDM (Gibco) supplemented with glutamine, HEPES, 5% human serum (Sigma), and 1× Pen-Strep). DC cells were resuspended in media supplemented with IL-4 (Peprotech, 20 ng/mL) and GM-CSF (Gibco, 20 ng/mL), plated in 6 well microplates, and rested overnight at 37° C. and 5% CO2 incubator. The following day, DC cells were counted and plated in a 96 well round bottom microplate at a concentration of 30,000 viable cells per well. Lyophilized neoantigen peptide pools (15-mer peptides with 8-mer overlapping peptide sequences) were solubilized in 100% DMSO with a stock concentration of 20 mg/mL Neoantigen peptides pools were added to DCs for a final concentration of 10 μg/mL and rested for 2 hours at 37° C. and 5% CO2 incubator. CEF Peptide Pool “Plus” (Cellular Technologies, Ltd.) was utilized as a positive control (each viral peptide at a final concentration of 4 ug/ml) and DMSO at the same final concentration (0.05%) as the experimental peptides was utilized as a negative control. After 2 hours, DC cells were irradiated with 50 gray of ionizing radiation. Autologous CD3+ Pan-T cells isolated from human normal PBMCs were thawed using media. Following irradiation, autologous Pan-T cells were added to the irradiated DCs at 300,000 viable cells per well. Human IL-15 (Peprotech) was added to all wells at final concentration of 10 ng/ml. Plates were incubated at 37° C. and 5% CO2 incubator for a total of 12 days. Media was refreshed every 2-3 days with IL-15 (R&D System, 10 ng/mL final concentration) and IL-2 (R&D systems, 10 IU/mL final concentration).
(§3) On Day 11, cells were re-stimulated with identical experimental peptide pools or controls, at same concentration as peptide stimulation on Day 1. Protein Inhibitor Cocktail (eBioscience) was added to every well and plate was incubated overnight for 14-16 hours at 37° C. and 5% CO2 incubator. On Day 12, cells were stained for surface and intracellular flow cytometry analysis. The cells were washed with PBS and stained with Live/Dead Fixable Aqua Dead Cell stain (Thermo-Fisher). Following the live/dead stain, cells were blocked using Biotin-Fre Fc Receptor Blocker (Accurate Chemical & Scientific Corp). Extracellular cellular flow panel ([…] per well in 50 μL) consisted of CD3 PerCP-Cy5.5 (Biolegend), CD4 BV421 (Biolegend), and CD8 APC-Cy7 (Biolegend). After extracellular staining, cells were fixed and permeabilized using Foxp3/Transcription Factor Staining Buffer Set (eBioscience) and stained for intracellular proteins (1:50 dilution) using TNFα FITC (R&D Systems) and IFNγ BV785 (Biolegend). Cells were washed and resuspended in stain buffer, analyzed, and recorded in a BD Celesta flow cytometer.
(§4) Flow cytometry analysis was conducted on FlowJo v10.6 software. Cells were gated on live, singlet, CD3+, CD4+ and CD8+ T cells. The CD8+ and CD4+ T cells were analyzed for TNFα and IFNγ expression.
(§5) The immunogenicity of neoantigens was first investigated in 9-16 healthy donors.

CD4+ T cells = experiment: exogenous autologous normal donor restimulation assay, TNFα/IFNγ double positive CD4+ T cells by flow cytometry; format: cell-based, human; details: donor independent, peptide pool 10 μg/mL, healthy donors; for Fold change (CD4+) vs. DMSO: maximum CD4+ T-cell response (TNFα and IFNγ); for Frequency (TNFα + IFNγ + CD4 T cells): maximum CD4+ T-cell response
Protocol: as §1, §2, §3, §4, §5

Sequence	Fold change (CD8+) vs. DMSO (CD8+ T cells)	Frequency (TNFα + IFNγ + CD8 T cells) (CD8+ T cells)	Immunogenic (yes/no) (CD8+ T cells)	Fold change (CD4+) vs. DMSO (CD4+ T cells)	Frequency (TNFα + IFNγ + CD4 T cells) (CD4+ T cells)
QTQEETDRDRGSWSCAVA [AS64, neoantigen, alternative splicing of IQGAP3]	33.44 fold	0.21%	Yes	5.43 fold	0.024%
RASCGAQKACDVNQLTSS [FUS17, neoantigen, gene fusion C20orf204->TCEA2]	13.53 fold	0.23%	Yes	6.91 fold	0.045%
RGGRGAQENSLD [FUS10, neoantigen, gene fusion SCNN1A->TNFRSF1A]	896.55 fold	19.5%	yes	20.13 fold	0.072%
RLDDSGIGNFITSLLNFISKFFCSFMGA [AS99, neoantigen, alternative splicing of FAM221A]	160.85 fold	1.43%	Yes	4 fold	0.077%
RNTLKESSKLKSSFEYWFAGFFSSSSSFFFLSRKFCFVFCLCWVESLGGVS [AS157, neoantigen, alternative splicing of ZIC4]	51.78 fold	0.16%	Yes	5.53 fold	0.083%
RRHGEVQGLLEREKTARGNPSG [AS72, neoantigen, alternative splicing of SMC1B]	8.6 fold	0.23%	Yes	4.15 fold	0.036%
RSSGLTTSSEYSTHVHMPLILHQAEQELLLLINP [AS141, neoantigen, alternative splicing of MUC16]	3.82 fold	0.041%	Yes	6.94 fold	0.045%
RYWTPATSSEYSNL [AS143, neoantigen, alternative splicing of MUC16]	12.1 fold	0.13%	Yes	3.6 fold	0.033%
SGCRLTLLSLSPVSSLGCPVPMP [AS107, neoantigen, alternative splicing of MUC16]	2351.27 fold	16.6%	Yes	14.89 fold	0.062%
SHALNWNKIGRMFRASRV [AS65, neoantigen, alternative splicing of LCN10]	82.3 fold	2.2%	Yes	73.69 fold	0.64%
SISLTDDEAELPLLDL [AS77, neoantigen, alternative splicing of EP400]	6.59 fold	0.12%	Yes	20.73 fold	0.18%
SMMEGVIQLSFKAIVCLLSCLDLLSLFRVVRHLS [AS94, neoantigen, alternative splicing of AFDN]	1080.99 fold	9.61%	Yes	62.76 fold	0.098%
SRRLKLAQGRLRGLERLHSPQPFLQPMLPQGAQGPCKAPGQGQLLGGRREPDPS [AS14, neoantigen, alternative splicing of FOXH1]	257.47 fold	5.6%	Yes	59.26 fold	0.12%
STLNITLSFDSHHGHHPVSVI [FUS6, neoantigen, gene fusion PKHD1L1->EBAG9]	4.47 fold	0.096%	yes	26.51 fold	0.11%
TKKRKQSELQQP [AS95, neoantigen, alternative splicing of DMXL2]	2.54 fold	0.03%	No	2.91 fold	0.026%
TRSLDDLEKLDTLCCKLSVHVT [AS33, neoantigen, alternative splicing of RGS12]	6958.6 fold	43.7%	Yes	32.24 fold	0.28%
VEDEEKKEAGTHFIHLTGTTVSAGVPEEMPATTLRREVF [AS91, neoantigen, alternative splicing of ACIN1]	46.44 fold	0.21%	Yes	36.02 fold	0.23%
VEDEEKKEGSMLVAPTSPPSLEAGTHFIHLTGTTVSAGVPEEMPATTLRREVF [AS93, neoantigen, alternative splicing of ACIN1]	459.18 fold	0.9%	Yes	253.72 fold	1.62%
VEDEEKKEPDGAQRHLVDIGGSHQTSHAEKFLFLLCPPVV [AS90, neoantigen, alternative splicing of ACIN1]	28.95 fold	0.1%	Yes	4.93 fold	0.044%
VIPGDLSEAHGYSFS [AS5, neoantigen, alternative splicing of PLAG1]	2.41 fold	0.017%	Yes	17.14 fold	0.18%
VLRKTAHRSTTARCSCPPWLTCWPRVAAPGALSTVAREASWWLLTTEVV [AS74, neoantigen, alternative splicing of TRPM5]	1018.49 fold	6.6%	Yes	17.23 fold	0.064%
VLTVTSTDQEYLDLSAP [AS44, neoantigen, alternative splicing of FGFR3]	85.94 fold	0.33%	Yes	13.45 fold	0.067%
VQKLKNARSLNLEDQI [AS83, neoantigen, alternative splicing of NUF2]	10.83 fold	0.14%	Yes	71.14 fold	0.061%
WSQDLQEGFSAPSRISAWFGPP [AS17, neoantigen, alternative splicing of KRT8]	169.53 fold	0.79%	Yes	29.97 fold	0.41%
